Calls of active or inactive are those of the source. No cut-off for these calls is given here.
Experiments:
[1] = target: T1, Glucoamylase 1 (Rhizopus oryzae) (UniProt P07683); test: Inhibition against Amyloglucosidase from Rhizopus mold at 1 mM; (ni=no inhibition)
T1 sequence (whole entry): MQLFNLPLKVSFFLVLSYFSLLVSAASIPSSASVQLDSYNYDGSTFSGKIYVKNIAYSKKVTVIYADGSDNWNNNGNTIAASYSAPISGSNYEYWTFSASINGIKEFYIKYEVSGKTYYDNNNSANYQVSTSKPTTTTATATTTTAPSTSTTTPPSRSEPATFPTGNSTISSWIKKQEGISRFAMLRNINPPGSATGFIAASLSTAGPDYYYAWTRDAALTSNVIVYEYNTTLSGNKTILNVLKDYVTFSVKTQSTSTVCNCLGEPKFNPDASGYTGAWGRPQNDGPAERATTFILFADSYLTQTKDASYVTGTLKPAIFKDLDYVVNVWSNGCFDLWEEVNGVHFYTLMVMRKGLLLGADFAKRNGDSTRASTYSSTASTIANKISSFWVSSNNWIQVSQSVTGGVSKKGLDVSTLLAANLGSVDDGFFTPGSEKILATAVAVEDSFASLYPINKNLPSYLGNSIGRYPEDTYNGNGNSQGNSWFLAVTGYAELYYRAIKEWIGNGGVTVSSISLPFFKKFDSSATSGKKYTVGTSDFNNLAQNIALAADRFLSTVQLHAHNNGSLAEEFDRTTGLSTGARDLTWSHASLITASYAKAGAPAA

[2] = target: Beta-glucosidase A (Caldicellulosiruptor saccharolyticus) (UniProt P10482); test: Percent inhibition against Beta Glucosidase from Caldocellum saccharolyticum at 1 mM
Chain of Beta-glucosidase A (Caldicellulosiruptor saccharolyticus) (P10482 whole entry): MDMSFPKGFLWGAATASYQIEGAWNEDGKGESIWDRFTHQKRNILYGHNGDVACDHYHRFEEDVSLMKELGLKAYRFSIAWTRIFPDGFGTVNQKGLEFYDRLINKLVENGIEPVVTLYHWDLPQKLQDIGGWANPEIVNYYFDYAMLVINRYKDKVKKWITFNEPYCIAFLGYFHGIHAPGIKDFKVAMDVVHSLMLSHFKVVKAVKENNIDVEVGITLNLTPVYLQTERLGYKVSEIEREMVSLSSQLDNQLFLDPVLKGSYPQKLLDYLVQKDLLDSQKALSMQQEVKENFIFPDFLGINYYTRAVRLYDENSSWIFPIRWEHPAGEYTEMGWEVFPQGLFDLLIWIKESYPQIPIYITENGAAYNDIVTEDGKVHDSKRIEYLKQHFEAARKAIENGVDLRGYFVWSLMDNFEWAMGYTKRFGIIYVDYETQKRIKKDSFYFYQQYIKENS

[3] = system: Prunus dulcis; test: Percent inhibition against Beta Glucosidase from Almonds at 1 mM
[4] = target: T2, Exo-1,4-beta-xylosidase xlnD (Aspergillus niger) (UniProt O00089); test: Inhibition against Beta-xylosidase from Aspergillus niger at 1 mM; (ni=no inhibition)
T2 sequence (whole entry): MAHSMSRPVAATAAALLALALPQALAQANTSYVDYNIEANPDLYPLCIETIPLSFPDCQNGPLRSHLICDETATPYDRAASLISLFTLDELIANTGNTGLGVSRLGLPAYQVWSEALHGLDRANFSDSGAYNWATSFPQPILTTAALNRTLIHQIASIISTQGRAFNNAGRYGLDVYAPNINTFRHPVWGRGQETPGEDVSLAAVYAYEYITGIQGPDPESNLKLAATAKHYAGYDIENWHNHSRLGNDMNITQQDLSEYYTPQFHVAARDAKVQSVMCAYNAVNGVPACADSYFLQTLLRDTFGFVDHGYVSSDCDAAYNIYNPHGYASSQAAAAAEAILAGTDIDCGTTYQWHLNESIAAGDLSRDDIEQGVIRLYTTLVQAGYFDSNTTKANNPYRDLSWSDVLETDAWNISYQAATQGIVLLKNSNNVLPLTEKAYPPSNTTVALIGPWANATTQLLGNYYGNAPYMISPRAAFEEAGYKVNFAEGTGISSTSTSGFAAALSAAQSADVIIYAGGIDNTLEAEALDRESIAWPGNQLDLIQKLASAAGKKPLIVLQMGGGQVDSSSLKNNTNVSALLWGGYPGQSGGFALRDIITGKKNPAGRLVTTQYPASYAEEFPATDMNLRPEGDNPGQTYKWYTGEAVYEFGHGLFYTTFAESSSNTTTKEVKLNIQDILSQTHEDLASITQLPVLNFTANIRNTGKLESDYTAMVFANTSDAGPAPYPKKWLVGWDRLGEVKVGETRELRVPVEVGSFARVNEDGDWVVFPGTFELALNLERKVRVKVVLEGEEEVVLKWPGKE

[5] = target: Glucoamylase (Aspergillus niger) (UniProt P69328); test: Inhibition against Amyloglucosidase from Aspergillus niger at 1 mM; (ni=no inhibition)
Chain of Glucoamylase (Aspergillus niger) (P69328 whole entry): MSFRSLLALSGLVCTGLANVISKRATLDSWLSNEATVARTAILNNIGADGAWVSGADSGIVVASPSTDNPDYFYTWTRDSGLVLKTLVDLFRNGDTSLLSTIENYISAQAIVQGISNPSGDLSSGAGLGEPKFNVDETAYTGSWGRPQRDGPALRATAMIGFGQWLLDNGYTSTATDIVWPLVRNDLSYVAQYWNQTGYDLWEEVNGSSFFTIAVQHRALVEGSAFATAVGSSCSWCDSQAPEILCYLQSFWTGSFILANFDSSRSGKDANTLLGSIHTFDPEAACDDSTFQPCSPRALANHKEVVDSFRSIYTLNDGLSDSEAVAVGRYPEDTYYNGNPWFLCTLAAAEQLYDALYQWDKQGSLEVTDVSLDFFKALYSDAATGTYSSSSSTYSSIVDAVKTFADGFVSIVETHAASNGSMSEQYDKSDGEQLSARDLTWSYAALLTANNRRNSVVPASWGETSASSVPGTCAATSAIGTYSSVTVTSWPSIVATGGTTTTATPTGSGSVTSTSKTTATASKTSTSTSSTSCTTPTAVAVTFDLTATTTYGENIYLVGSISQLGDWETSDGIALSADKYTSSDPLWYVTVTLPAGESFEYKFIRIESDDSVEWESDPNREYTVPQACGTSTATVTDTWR

[6] = target: T3, Alpha-glucosidase (Oryza sativa Japonica Group) (UniProt Q9LGC6); test: Inhibition against Alpha Glucosidase from rice at 1 mM; (ni=no inhibition)
T3 sequence (whole entry): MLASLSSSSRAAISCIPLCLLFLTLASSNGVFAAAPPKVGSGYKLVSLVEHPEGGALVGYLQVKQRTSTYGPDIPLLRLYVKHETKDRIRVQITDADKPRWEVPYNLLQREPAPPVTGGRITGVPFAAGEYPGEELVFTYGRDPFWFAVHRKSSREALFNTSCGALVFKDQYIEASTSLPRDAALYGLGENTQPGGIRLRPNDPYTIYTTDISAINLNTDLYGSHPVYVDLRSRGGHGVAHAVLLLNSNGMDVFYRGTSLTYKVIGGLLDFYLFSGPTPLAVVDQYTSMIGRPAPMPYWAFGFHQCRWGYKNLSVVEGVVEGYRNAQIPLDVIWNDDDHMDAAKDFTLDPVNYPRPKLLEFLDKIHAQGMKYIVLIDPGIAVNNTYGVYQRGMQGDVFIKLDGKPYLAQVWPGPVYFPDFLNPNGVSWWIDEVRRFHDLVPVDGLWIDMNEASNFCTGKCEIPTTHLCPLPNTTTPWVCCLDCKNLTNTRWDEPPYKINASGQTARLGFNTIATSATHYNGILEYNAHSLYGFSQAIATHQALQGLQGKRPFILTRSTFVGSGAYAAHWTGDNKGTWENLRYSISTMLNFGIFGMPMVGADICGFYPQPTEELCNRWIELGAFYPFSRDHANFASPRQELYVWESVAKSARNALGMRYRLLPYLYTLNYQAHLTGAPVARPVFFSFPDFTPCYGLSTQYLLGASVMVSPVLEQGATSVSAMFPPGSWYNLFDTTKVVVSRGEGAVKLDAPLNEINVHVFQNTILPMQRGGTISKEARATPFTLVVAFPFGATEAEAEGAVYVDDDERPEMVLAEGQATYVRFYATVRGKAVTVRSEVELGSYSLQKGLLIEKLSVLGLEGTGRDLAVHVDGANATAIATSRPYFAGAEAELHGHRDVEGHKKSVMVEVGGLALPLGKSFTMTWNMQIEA

[7] = Inhibition against Alpha Glucosidase from yeast at 1 mM; (ni=no inhibition)
[8] = Inhibitory concentration against Beta Glucosidase from Almonds; set-up: species or system Prunus dulcis
[9] = target: Beta-glucosidase A (Caldicellulosiruptor saccharolyticus) (UniProt P10482); test: Inhibition against Beta Glucosidase from Caldocellum saccharolyticum at 1 mM; (ni=no inhibition)
[10] = system: Prunus dulcis; test: Inhibition against Beta Glucosidase from Almonds at 1 mM; (ni=no inhibition)
[11] = target: T1, Glucoamylase 1 (Rhizopus oryzae); test: Percent inhibition against Amyloglucosidase from Rhizopus mold at 1 mM
[12] = target: Glucoamylase (Aspergillus niger) (UniProt P69328); test: Percent inhibition against Amyloglucosidase from Aspergillus niger at 1 mM concentration
[13] = Inhibitory activity against Beta Glucosidase from Almonds; set-up: species or system Prunus dulcis

SMILES | inhibition [1] | inhibition [2] | inhibition [3] | inhibition [4] | inhibition [5] | inhibition [6] | inhibition [7] | IC50 [8] | inhibition [9] | inhibition [10] | inhibition [11] | inhibition [12] | Ki [13]
OC1C=CC(NCc2ccc(Cl)cc2)C(O)C1O (stereo in doubt; 4h) | inactive | 84% | 96% | inactive | inactive | inactive | inactive |  |  |  |  |  | 
OC1C=CC(NCc2ccc(Oc3ccccc3)cc2)C(O)C1O (stereo in doubt; 4j) | inactive | 71% | 97% | inactive | inactive | inactive | inactive |  |  |  |  |  | 
Oc1ccc(CNC2C=CC(O)C(O)C2O)cc1 (stereo in doubt; 4f) |  |  |  |  |  |  |  | 72 µM |  |  |  |  | 
CCCN(CCC)C1C=CC(O)C(O)C1O (racemic) | inactive |  | 36% | inactive | inactive | inactive | inactive |  | inactive |  |  |  | 
OC1C=CC(NCc2ccc(Oc3ccccc3)cc2)C(O)C1O (stereo in doubt) | inactive |  |  | inactive | inactive | inactive | inactive |  | inactive | inactive |  |  | 
OC1C=CC(NCCc2ccccc2)C(O)C1O (racemic) | inactive |  | 86% | inactive | inactive | inactive | inactive | 32 µM |  |  |  |  | 
Oc1ccccc1CNC1C=CC(O)C(O)C1O (stereo in doubt) |  |  |  | inactive |  | inactive | inactive |  | inactive | inactive | 41% | 42% | 
Oc1ccc(CNC2C=CC(O)C(O)C2O)cc1 (stereo in doubt) |  |  | 26% | inactive |  | inactive | inactive |  | inactive |  | 85% | 94% | 
COc1ccc(CNC2C=CC(O)C(O)C2O)cc1 (stereo in doubt; 4g) |  |  |  |  |  |  |  | 52 µM |  |  |  |  | 25 µM
OC1C=CC(NCc2ccc(Cl)cc2)C(O)C1O (stereo in doubt) |  |  | 51% | inactive |  | inactive | inactive |  | inactive |  | 72% | 45% | 
OC1C=CC(NCc2ccc(-c3ccccc3)cc2)C(O)C1O (stereo in doubt) | inactive |  | 56% | inactive | inactive | inactive | inactive |  | inactive |  |  |  | 
OC1C=CC(NCc2ccccc2)C(O)C1O (stereo in doubt) |  |  | 51% | inactive |  | inactive | inactive |  | inactive |  | 72% | 63% | 
COc1cc(O)c(CNC2C=CC(O)C(O)C2O)c(Br)c1 (single isomer, unassigned) | inactive |  |  | inactive | inactive | inactive | inactive |  | inactive | inactive |  |  | 
OC1C=CC(N(CCc2ccccc2)CCc2ccccc2)C(O)C1O (racemic) | inactive |  | 36% | inactive | inactive | inactive | inactive |  | inactive |  |  |  | 
OC1C=CC(NCc2ccccc2)C(O)C1O (stereo in doubt; 4e) |  |  |  |  |  |  |  | 32 µM |  |  |  |  | 10 µM
OC1C=CC(NCc2ccc(-c3ccccc3)cc2)C(O)C1O (stereo in doubt; 4i) | inactive | 94% | 97% | inactive | inactive | inactive | inactive |  |  |  |  |  | 
COc1cc(O)c(CNC2C=CC(O)C(O)C2O)c(Br)c1 (stereo in doubt; 4l) | inactive | 43% |  | inactive | inactive | inactive | inactive |  |  | inactive |  |  | 
COc1ccc(CNC2C=CC(O)C(O)C2O)cc1 (stereo in doubt) |  |  | 51% | inactive |  | inactive | inactive |  | inactive |  | 72% | 63% | 
CCCCCCNC1C=CC(O)C(O)C1O (racemic) | inactive |  | 92% | inactive | inactive | inactive | inactive | 32 µM |  |  |  |  | 
NC1C=CC(O)C(O)C1O (single isomer, unassigned; (-)) | inactive |  |  | inactive | inactive | inactive | inactive |  | inactive | inactive |  |  | 
NC1C=CC(O)C(O)C1O (stereo in doubt; (+)-3) | inactive |  |  | inactive | inactive | inactive | inactive |  | inactive | inactive |  |  | 
CCCCCCCCN(CCCCCCCC)C1C=CC(O)C(O)C1O (racemic) | inactive | 83% |  | inactive | inactive | inactive | inactive |  |  | inactive |  |  | 
